Test results from patent US8232269B2, “Amide compounds useful in therapy” (Pfizer Inc., priority 2008, dated 2012).
Structures can show the parent of a compound that is named as a salt.

molecular target: T1, Progesterone Receptor (PR) (Homo sapiens, UniProt P06401); assay: In vitro functional assay for progesterone receptor (PR) antagonists: inhibition of progesterone-induced alkaline phosphatase expression in T47D cells; assay type: cell-based; settings: antagonist format, 5 nM progesterone, Ki calculated from IC50 with the Cheng-Prusoff equation
T1 construct: endogenous in cells; host or cells: T47D human breast mammary carcinoma cells
T1 sequence (P06401 1-933): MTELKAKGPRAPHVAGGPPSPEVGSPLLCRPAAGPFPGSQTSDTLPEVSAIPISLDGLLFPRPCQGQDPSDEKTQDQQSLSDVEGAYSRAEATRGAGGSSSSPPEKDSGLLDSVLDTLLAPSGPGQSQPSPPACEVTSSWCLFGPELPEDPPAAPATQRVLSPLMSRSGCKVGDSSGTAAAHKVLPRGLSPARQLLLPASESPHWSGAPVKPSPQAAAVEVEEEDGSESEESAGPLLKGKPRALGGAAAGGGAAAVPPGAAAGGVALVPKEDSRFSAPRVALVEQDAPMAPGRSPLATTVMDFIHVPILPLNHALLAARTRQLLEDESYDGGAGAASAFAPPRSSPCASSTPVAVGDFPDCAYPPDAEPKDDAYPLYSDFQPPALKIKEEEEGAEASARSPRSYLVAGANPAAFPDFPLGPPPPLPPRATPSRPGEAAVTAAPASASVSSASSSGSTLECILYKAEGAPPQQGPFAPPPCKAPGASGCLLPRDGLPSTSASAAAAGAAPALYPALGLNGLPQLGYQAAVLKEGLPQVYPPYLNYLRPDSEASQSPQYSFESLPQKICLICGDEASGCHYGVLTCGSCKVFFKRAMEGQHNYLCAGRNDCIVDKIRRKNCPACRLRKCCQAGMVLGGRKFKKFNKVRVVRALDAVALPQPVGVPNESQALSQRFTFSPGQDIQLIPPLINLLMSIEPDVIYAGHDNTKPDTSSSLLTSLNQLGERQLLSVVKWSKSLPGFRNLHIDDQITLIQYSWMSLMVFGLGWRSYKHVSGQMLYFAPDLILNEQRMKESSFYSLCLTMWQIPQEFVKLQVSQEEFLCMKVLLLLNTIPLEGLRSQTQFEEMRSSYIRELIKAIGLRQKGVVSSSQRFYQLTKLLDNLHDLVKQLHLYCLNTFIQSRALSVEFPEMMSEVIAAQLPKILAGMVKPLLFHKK
How it was run: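 Antagonist format: T47D cells (8750/well, phenol red-free DMEM + 5% CS-FCS) given half-log compound dilutions plus 5 nM progesterone (final), incubated overnight (≥16 h) at 37 °C. Alkaline phosphatase read by CSPD chemiluminescence after freeze-thaw lysis; 0.1 μM RU-486 final defines minimum.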

Row | SMILES | Ki
1 | CC(C)C(=O)N1CC[C@@H](NC(=O)c2c(C3CC3)c(-c3ccc(C#N)cc3)nn2C(C)C)C1 [Example 11, 3-(4-Cyanophenyl)-4-cyclopropyl-N-[(3R)-1-isobutyrylpyrrolidin-3-yl]-1-isopropyl-1H-pyrazole-5-carboxamide] | 18.6 nM
2 | Cc1c(-c2ccc(C#N)cc2)nn(C2CCOC2)c1C(=O)NCC(C)(C)O (single isomer, unassigned) [Example 80 Ent 1, 3-(4-Cyanophenyl)-N-(2-hydroxy-2-methylpropyl)-4-methyl-1-(tetrahydrofuran-3-yl)-1H-pyrazole-5-carboxamide] | 57.1 nM
3 | CC(C)n1nc(-c2ccc(C#N)cc2)c(C#N)c1C(=O)NC1CC1 [Example 94, 4-Cyano-3-(4-cyanophenyl)-N-cyclopropyl-1-isopropyl-1H-pyrazole-5-carboxamide] | 10.6 nM
4 | CCC(=O)N1CC[C@H](NC(=O)c2c(C3CC3)c(-c3ccc(C#N)cc3)nn2C(C)C)C1 [Example 15, 3-(4-Cyanophenyl)-4-cyclopropyl-1-isopropyl-N-[(3S)-1-propionylpyrrolidin-3-yl]-1H-pyrazole-5-carboxamide] | 280 nM
5 | CC(C)n1nc(-c2ccc(C#N)cc2)c(C2CC2)c1C(=O)N[C@@H]1CCN(S(C)(=O)=O)C1 [Example 13, 3-(4-Cyanophenyl)-4-cyclopropyl-1-isopropyl-N-[(3R)-1-(methylsulfonyl)pyrrolin-3-yl]-1H-pyrazole-5-carboxamide] | 34.8 nM
6 | Cc1c(-c2ccc(C#N)cc2)nn(C2CCOC2)c1C(=O)NC[C@@H](C)O (single isomer, unassigned) [Example 79 Diast 1] | > 766 nM
7 | Cc1c(-c2ccc(C#N)cc2)nn(C2CCC2)c1C(=O)NCC1CC1 [Example 69, 3-(4-Cyanophenyl)-1-cyclobutyl-N-(cyclopropylmethyl)-4-methyl-1H-pyrazole-5-carboxamide] | 3.4 nM
8 | CC(C)n1nc(-c2ccc(C#N)cc2)c(C2CC2)c1C(=O)NCc1ccncn1 [Example 23, 3-(4-Cyanophenyl)-4-cyclopropyl-1-isopropyl-N-(pyrimidin-4-ylmethyl)-1H-pyrazole-5-carboxamide] | 10.2 nM
9 | CC(C)n1nc(-c2ccc(C#N)cc2)c(C2CC2)c1C(=O)N[C@H]1CCNC1 [Example 9, 3-(4-Cyanophenyl)-4-cyclopropyl-1-isopropyl-N-[(3S)-pyrrolidin-3-yl]-1H-pyrazole-5-carboxamide hydrochloride] | 836 nM
10 | CNC(=O)c1c(C2CC(F)(F)C2)c(-c2ccc(C#N)cc2)nn1C(C)C [Example 99, 3-(4-Cyanophenyl)-4-(3,3-difluorocyclobutyl)-1-isopropyl-N-methyl-1H-pyrazole-5-carboxamide] | 52.5 nM
11 | CC(C)n1nc(-c2ccc(C#N)cc2)c(C2CC2)c1C(=O)N[C@@H]1CC[C@H](O)C1 [Example 31, 3-(4-Cyanophenyl)-4-cyclopropyl-N-[(1R,3S)-3-hydroxycyclopentyl]-1-isopropyl-1H-pyrazole-5-carboxamide] | 36.3 nM
12 | Cc1c(-c2ccc(C#N)cc2)nn(C2CCOC2)c1C(=O)NCC1CC1 (stereo not shown) [Example 127] | 11.3 nM
13 | CNC(=O)c1c(C)c(-c2ccc(C#N)cc2)nn1C1CCC1 [Example 70, 3-(4-Cyanophenyl)-1-cyclobutyl-N,4-dimethyl-1H-pyrazole-5-carboxamide] | 5.51 nM
14 | Cc1cc(-c2nn(C(C)C)c(C(=O)NC3CC3)c2C)ccc1C#N [Example 67, 3-(4-Cyano-3-methylphenyl)-N-cyclopropyl-1-isopropyl-4-methyl-1H-pyrazole-5-carboxamide] | 4.4 nM
15 | CCNC(=O)c1c(C)c(-c2ccc(C#N)cc2)nn1C1CCOC1 (single isomer, unassigned) [Example 76 Ent 1, 3-(4-Cyanophenyl)-N-ethyl-4-methyl-1-(tetrahydrofuran-3-yl)-1H-pyrazole-5-carboxamide] | 22.3 nM
16 | CNC(=O)CNC(=O)c1c(C2CC2)c(-c2ccc(C#N)cc2)nn1C(C)C [Example 25, 3-(4-Cyanophenyl)-4-cyclopropyl-1-isopropyl-N-[2-(methylamino)-2-oxoethyl]-1H-pyrazole-5-carboxamide] | 24.5 nM
17 | Cc1cc(-c2nn(C(C)C)c(C(=O)NC3CC3)c2C#N)ccc1C#N [Example 121] | 5.06 nM
18 | CC(C)C(=O)N1CC[C@H](NC(=O)c2c(C3CC3)c(-c3ccc(C#N)cc3)nn2C(C)C)C1 [Example 14, 3-(4-Cyanophenyl)-4-cyclopropyl-N-[(3S)-1-isobutyrylpyrrolidin-3-yl]-1-isopropyl-1H-pyrazole-5-carboxamide] | 302 nM
19 | CC(C)n1nc(-c2ccc(C#N)cc2)c(Cl)c1C(=O)NC1CC1 [Example 132] | 17.8 nM
20 | CC(C)n1nc(-c2ccc(C#N)cc2)c(C2CC2)c1C(=O)NC1CCC1 [Example 50, 3-(4-Cyanophenyl)-N-cyclobutyl-4-cyclopropyl-1-isopropyl-1H-pyrazole-5-carboxamide] | 3.59 nM

More lines, now with the values ahead:

Row | Ki | SMILES
21 | 54.8 nM | CCc1c(-c2ccc(C#N)cc2)nn(C(C)C)c1C(=O)NCC(C)(C)O [Example 118, 3-(4-Cyanophenyl)-4-ethyl-N-(2-hydroxy-2-methylpropyl)-1-isopropyl-1H-pyrazole-5-carboxamide]
22 | 171 nM | CC(C)n1nc(-c2ccc(C#N)cc2)c(C2CC2)c1C(=O)NCCN [Example 28, N-(2-Aminoethyl)-3-(4-cyanophenyl)-4-cyclopropyl-1-isopropyl-1H-pyrazole-5-carboxamide]
23 | > 145 nM | CCc1c(-c2ccc(C#N)cc2)nn(C(C)C)c1C(=O)NCC(=O)NC [Example 119, 3-(4-Cyanophenyl)-4-ethyl-1-isopropyl-N-[2-(methylamino)-2-oxoethyl]-1H-pyrazole-5-carboxamide]
24 | 91.4 nM | CCc1c(-c2ccc(C#N)cc2)nn(C(C)CC)c1C(=O)NC[C@H](C)O (stereo partly drawn) [Example 108, 1-sec-Butyl-3-(4-cyanophenyl)-4-ethyl-N-[(2S)-2-hydroxypropyl]-1H-pyrazole-5-carboxamide]
25 | 6.48 nM | CC(C)NC(=O)c1c(C#N)c(-c2ccc(C#N)cc2)nn1C(C)C [Example 91, 4-Cyano-3-(4-cyanophenyl)-N,1-diisopropyl-1H-pyrazole-5-carboxamide]
26 | 32.1 nM | CCNC(=O)c1c(CC)c(-c2ccc(C#N)cc2)nn1C(C)C [Example 116, 3-(4-Cyanophenyl)-N,4-diethyl-1-isopropyl-1H-pyrazole-5-carboxamide]
27 | 199 nM | CCc1c(-c2ccc(C#N)cc2)nn(C(C)CC)c1C(=O)NCC(=O)NC (racemic) [Example 109, 1-sec-Butyl-3-(4-cyanophenyl)-4-ethyl-N-[2-(methylamino)-2-oxoethyl]-1H-pyrazole-5-carboxamide]
28 | 85 nM | CCc1c(-c2ccc(C#N)cc2)nn(C(C)C)c1C(=O)NC[C@@H](C)O [Example 115, 3-(4-Cyanophenyl)-4-ethyl-N-[(2R)-2-hydroxypropyl]-1-isopropyl-1H-pyrazole-5-carboxamide]
29 | 99 nM | CCc1c(-c2ccc(C#N)cc2)nn(C(C)CC)c1C(=O)NCC(=O)NC (single isomer, unassigned) [Example 109 Ent 1, 1-sec-Butyl-3-(4-cyanophenyl)-4-ethyl-N-[2-(methylamino)-2-oxoethyl]-1H-pyrazole-5-carboxamide]
30 | 14.8 nM | CCc1c(-c2ccc(C#N)cc2)nn(C(C)CC)c1C(=O)NCC(C)(C)O (single isomer, unassigned) [Example 106 Ent 1, 1-sec-Butyl-3-(4-cyanophenyl)-4-ethyl-N-(2-hydroxy-2-methylpropyl)-1H-pyrazole-5-carboxamide]
31 | 21.9 nM | CC(C)n1nc(-c2ccc(C#N)cc2)c(C#N)c1C(=O)NCC(C)(C)O [Example 134]
32 | 23.8 nM | CCc1c(-c2ccc(C#N)cc2)nn(C(C)CC)c1C(=O)NCC(C)(C)O (racemic) [Example 106, 1-sec-Butyl-3-(4-cyanophenyl)-4-ethyl-N-(2-hydroxy-2-methylpropyl)-1H-pyrazole-5-carboxamide]
33 | 63 nM | CCc1c(-c2ccc(C#N)cc2)nn(C(C)CC)c1C(=O)NC[C@@H](C)O (mixture of isomers) [Example 107, 1-sec-Butyl-3-(4-cyanophenyl)-4-ethyl-N-[(2R)-2-hydroxypropyl]-1H-pyrazole-5-carboxamide]
34 | 9.39 nM | CC(C)n1nc(-c2ccc(C#N)cc2)c(C2CC2)c1C(=O)NC[C@H](C)O [Example 2, 3-(4-Cyano-phenyl)-4-cyclopropyl-N-[(2S)-2-hydroxypropyl]-1-isopropyl-1H-pyrazole-5-carboxamide]
